Test results as given in the NIST ThermoML archive (doi:10.1021/je301123j).

Assay: xn = mol fraction of the nth substance listed
Details: for surface tension liquid-gas: Ring tensiometer; for mass density / speed of sound / viscosity: 100 kPa, Liquid

CCN1CCCC1=O [1-ethyl-2-pyrrolidinone] + OCCN(CCO)CCO
Details | mass density [kg/m3] | speed of sound [m/s] | surface tension liquid-gas [mN/m] | viscosity [mPa·s]
293.15 K, x1 = 0.1001 | 1112.5 | 1611.4 | 44.7 | 570.35
293.15 K, x1 = 0.2 | 1101.3 | 1598.1 | 43.4 | 312.31
293.15 K, x1 = 0.3 | 1089.95 | 1585.4 | 42 | 164.25
293.15 K, x1 = 0.4004 | 1077.59 | 1574.5 | 40.9 | 81.22
293.15 K, x1 = 0.5001 | 1066.06 | 1565.5 | 40.1 | 41.49
293.15 K, x1 = 0.6002 | 1053.3 | 1555.6 | 39.2 | 21.52
293.15 K, x1 = 0.7002 | 1040.32 | 1545.9 | 38.3 | 11.54
293.15 K, x1 = 0.8 | 1026.31 | 1536.1 | 37.8 | 6.382
293.15 K, x1 = 0.8998 | 1012.14 | 1525.5 | 36.9 | 3.627
293.15 K, x1 = 1 | 997.91 | 1513.2 | 36.5 | 2.132
303.15 K, x1 = 0.1001 | 1106.6 | 1588.7 | 43.9 | 252.99
303.15 K, x1 = 0.2 | 1095.17 | 1575.4 | 42.3 | 151.13
303.15 K, x1 = 0.3 | 1083.52 | 1562.2 | 41.3 | 85.6
303.15 K, x1 = 0.4004 | 1070.78 | 1548.9 | 40.2 | 46.14
303.15 K, x1 = 0.5001 | 1058.92 | 1538.5 | 39.2 | 25.54
303.15 K, x1 = 0.6002 | 1045.86 | 1526.5 | 38.6 | 14.29
303.15 K, x1 = 0.7002 | 1032.59 | 1514.2 | 37.5 | 8.268
303.15 K, x1 = 0.8 | 1018.3 | 1502.2 | 36.7 | 4.866
303.15 K, x1 = 0.8998 | 1003.86 | 1490.5 | 36 | 2.902
303.15 K, x1 = 1 | 989.34 | 1475 | 35.2 | 1.777
313.15 K, x1 = 0.1001 | 1100.7 | 1569.8 | 43 | 132.88
313.15 K, x1 = 0.2 | 1088.99 | 1555.1 | 41.6 | 82.06
313.15 K, x1 = 0.3 | 1076.98 | 1540.4 | 40.6 | 47.47
313.15 K, x1 = 0.4004 | 1063.92 | 1524.8 | 39.4 | 28.4
313.15 K, x1 = 0.5001 | 1051.74 | 1512.2 | 38.3 | 16.84
313.15 K, x1 = 0.6002 | 1038.43 | 1497.6 | 37.6 | 10.07
313.15 K, x1 = 0.7002 | 1024.86 | 1483.1 | 36.4 | 6.178
313.15 K, x1 = 0.8 | 1010.29 | 1468.6 | 35.8 | 3.794
313.15 K, x1 = 0.8998 | 995.57 | 1456.6 | 35 | 2.379
313.15 K, x1 = 1 | 980.76 | 1437.6 | 34.2 | 1.515
323.15 K, x1 = 0.1001 | 1094.74 | 1551.9 | – | 75.13
323.15 K, x1 = 0.2 | 1082.69 | 1534.9 | – | 46.57
323.15 K, x1 = 0.3 | 1070.36 | 1517.4 | – | 29.62
323.15 K, x1 = 0.4004 | 1057 | 1500.3 | – | 18.7
323.15 K, x1 = 0.5001 | 1044.54 | 1485.3 | – | 11.73
323.15 K, x1 = 0.6002 | 1030.97 | 1469.1 | – | 7.428
323.15 K, x1 = 0.7002 | 1017.11 | 1452.3 | – | 4.758
323.15 K, x1 = 0.8 | 1002.27 | 1435.5 | – | 3.06
323.15 K, x1 = 0.8998 | 987.27 | 1422.3 | – | 1.994
323.15 K, x1 = 1 | 972.16 | 1400.6 | – | 1.31

CCN1CCCC1=O [1-ethyl-2-pyrrolidinone] + OCCNCCO
Details | mass density [kg/m3] | speed of sound [m/s] | surface tension liquid-gas [mN/m] | viscosity [mPa·s]
293.15 K, x1 = 0.1 | 1084.34 | 1700.4 | 44.5 | 462.69
293.15 K, x1 = 0.2005 | 1072.76 | 1666.7 | 42.8 | 227.23
293.15 K, x1 = 0.3001 | 1061.83 | 1638.2 | 41.2 | 109.6
293.15 K, x1 = 0.4002 | 1051.18 | 1611.7 | 40.1 | 51.6
293.15 K, x1 = 0.4999 | 1040.9 | 1589.2 | 39.2 | 26.02
293.15 K, x1 = 0.6 | 1031.22 | 1569.3 | 38.1 | 13.84
293.15 K, x1 = 0.7001 | 1022.09 | 1552.5 | 37.8 | 8.154
293.15 K, x1 = 0.8001 | 1013.33 | 1538.4 | 37.2 | 4.999
293.15 K, x1 = 0.8995 | 1005.23 | 1524.5 | 36.5 | 3.117
293.15 K, x1 = 1 | 997.91 | 1513.2 | 36.5 | 2.132
303.15 K, x1 = 0.1 | 1077.54 | 1672.2 | 43.6 | 211.41
303.15 K, x1 = 0.2005 | 1065.85 | 1637.9 | 41.3 | 110.73
303.15 K, x1 = 0.3001 | 1054.58 | 1607.8 | 40.1 | 55.57
303.15 K, x1 = 0.4002 | 1043.68 | 1581 | 39.1 | 29.59
303.15 K, x1 = 0.4999 | 1033.22 | 1557.4 | 38.4 | 16.21
303.15 K, x1 = 0.6 | 1023.25 | 1536.3 | 37.1 | 9.351
303.15 K, x1 = 0.7001 | 1013.95 | 1518.1 | 36.7 | 5.87
303.15 K, x1 = 0.8001 | 1005.2 | 1503.6 | 36.2 | 3.826
303.15 K, x1 = 0.8995 | 996.81 | 1487.8 | 35.3 | 2.496
303.15 K, x1 = 1 | 989.34 | 1475 | 35.2 | 1.777
313.15 K, x1 = 0.1 | 1070.86 | 1645.8 | 42 | 108.68
313.15 K, x1 = 0.2005 | 1058.79 | 1610.1 | 40.4 | 57.66
313.15 K, x1 = 0.3001 | 1047.53 | 1578.7 | 38.8 | 32.13
313.15 K, x1 = 0.4002 | 1036.08 | 1550.5 | 38.3 | 18.38
313.15 K, x1 = 0.4999 | 1025.43 | 1526.2 | 37 | 10.8
313.15 K, x1 = 0.6 | 1015.25 | 1503.7 | 36.3 | 6.732
313.15 K, x1 = 0.7001 | 1005.78 | 1484.4 | 35.9 | 4.419
313.15 K, x1 = 0.8001 | 996.9 | 1469.1 | 34.8 | 3.014
313.15 K, x1 = 0.8995 | 988.38 | 1451.6 | 34.4 | 2.058
313.15 K, x1 = 1 | 980.76 | 1437.6 | 34.2 | 1.515
323.15 K, x1 = 0.1 | 1064.04 | 1619.5 | – | 57.82
323.15 K, x1 = 0.2005 | 1051.64 | 1582.5 | – | 33.78
323.15 K, x1 = 0.3001 | 1039.8 | 1550 | – | 20.16
323.15 K, x1 = 0.4002 | 1028.42 | 1519.9 | – | 12.28
323.15 K, x1 = 0.4999 | 1017.57 | 1495.1 | – | 7.624
323.15 K, x1 = 0.6 | 1007.21 | 1471 | – | 5.011
323.15 K, x1 = 0.7001 | 997.61 | 1450.7 | – | 3.439
323.15 K, x1 = 0.8001 | 988.58 | 1434.7 | – | 2.429
323.15 K, x1 = 0.8995 | 979.92 | 1415.6 | – | 1.734
323.15 K, x1 = 1 | 972.16 | 1400.6 | – | 1.31
